We go through 15 substances from US8993566B2, “Quinoline compound composing 1,2,4-triazine-dione and use thereof” (Wuhan Shengyun Biopharma Co., Ltd., priority 2012, dated 2015).

Test [1] has as its system human hepatoma carcinoma cell line SMMC-7721. Briefly: In vitro anti-tumor cell activity (MTT), SMMC-7721. The following applies: SMMC-7721 cells, MTT, 72 h, Bliss method. It is filed as cell-based. How it is done:
(§1) The digested cell solution was poured into a centrifuge tube, to which a culture media was added to stop the digestion. The centrifuge tube was centrifuged at 800 r/min for 10 min, the supernatant was removed gently and then 5 mL of the culture media was added. The cells were pipetted and mixed homogeneously. 10 μL cell suspension was taken into a cell counting plate for counting, wherein the cell concentration was adjusted to 10^4 cells/well. To each well of a 96-well plate, except for A1 well as blank control, was added 100 μL of the cell suspension. The 96-well plate was placed in an incubator and cultivated for 24 h. […] The 96-well plate was placed in an incubator and cultivated for 72 h. (3) The culture media containing the compounds in the 96-well plate was removed, and the cells were washed with phosphate buffered solution (PBS) twice. To each well was added 100 μL MTT (tetrazole) (0.5 mg/mL), after placing the plate in an incubator to incubate for 4 h, the MTT solution was removed and 100 μL dimethyl sulfoxide was added. The reaction product of survival cells with MTT, i.e. formazan, was dissolved completely by oscillation on a magnetic oscillator, and then placed into a microplate reader to measure the results, and the IC50 values of compounds could be deduced by Bliss method.

The subject of test [2] is human nonsmall-cell lung cancer cell H460. Put plainly: In vitro anti-tumor cell activity (MTT), H460. It is filed as cell-based. The following applies: H460 cells, MTT, 72 h, Bliss method. Here is the method: as §1
Test [3] has as its system human colon cancer cell HT-29. Briefly: In vitro anti-tumor cell activity (MTT), HT-29. It is filed as cell-based. The note with it: HT-29 cells, MTT, 72 h, Bliss method. How it is done:
as §1

In test [4] the target is T1, c-Met kinase (His-tagged recombinant human Met (amino acids 974-end)) (Homo sapiens, UniProt P08581).
T1 construct: His-tagged recombinant human Met (amino acids 974-end); His
Briefly: c-Met Enzyme Activity Inhibition Assay (ELISA). It is filed as biochemical. The following applies: 50 pM c-Met, 5 μM ATP, room temperature 20 min. How it is done: c-Met Enzyme Activity Inhibition Assay
The assay for the determination of c-Met kinase activity is based on an enzyme linked immunosorbant assay (ELISA). A compound of Formula I, 50 pM c-Met (His-tagged recombinant human Met (amino acids 974-end), expressed by baculovirus), and 5 μM ATP in an assay buffer (25 mM MOPS, pH 7.4, 5 mM MgCl2, […], 100 μM sodium orthovanadate, 0.01% Triton X-100, 1 mM DTT, final DMSO concentration 1% (v/v)) were incubated on a plate coated with 0.25 mg/mL POT at room temperature for 20 min. The reaction mixture was removed by washing and the phosphorylated polymer substrate was detected with 0.2 μg/mL phosphotyrosine specific monoclonal antibody (PY20) conjugated to horseradish peroxidase (HRP). After the addition of 1M phosphoric acid to stop the development, the chromogenic substrate (TMB) color was quantitated by spectrophotometry at 450 nm.

Test [5] relates to human gastric cancer cell MKN-45. Put plainly: In vitro anti-tumor cell activity (MTT), MKN-45. It is filed as cell-based. The following applies: MKN-45 cells, MTT, 72 h, Bliss method. How it is done:
as §1

T1 sequence (P08581 956-1390): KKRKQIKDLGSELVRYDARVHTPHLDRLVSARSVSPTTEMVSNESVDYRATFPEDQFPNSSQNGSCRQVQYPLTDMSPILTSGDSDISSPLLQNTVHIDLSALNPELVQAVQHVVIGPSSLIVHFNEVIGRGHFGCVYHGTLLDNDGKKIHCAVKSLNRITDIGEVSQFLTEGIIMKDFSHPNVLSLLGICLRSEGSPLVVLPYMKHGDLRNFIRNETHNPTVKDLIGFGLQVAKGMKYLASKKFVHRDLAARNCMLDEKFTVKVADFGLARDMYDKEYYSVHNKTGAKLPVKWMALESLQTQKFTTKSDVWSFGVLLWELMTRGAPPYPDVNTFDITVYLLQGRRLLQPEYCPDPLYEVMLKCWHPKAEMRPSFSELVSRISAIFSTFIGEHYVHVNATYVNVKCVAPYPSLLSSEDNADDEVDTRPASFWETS

For the substance “N-[3-fluoro-4-[6-methoxy-7-[3-(1-pyrrolidyl)propyloxy]quinolin-4-oxy]phenyl]-2-(4-methoxyphenyl)-4-methyl-3,5-dicarbonyl-2,3,4,5-tetrahydro-1,2,4-triazine-6-carboxamide [Example 11]”, the “SMMC-7721 IC50” value in test [1] stood at 2.5 µg/mL. For the same substance, in test [2], the “H460 IC50” value stood at 2.1 µg/mL. In addition, the “HT-29 IC50” value in test [3] was found to be 1.4 µg/mL. In test [4], the “IC50 for inhibiting c-Met kinase” value is 0.47 µg/mL. Besides, the “MKN-45 IC50” value in test [5] was found to be 3.3 µg/mL.

Take “N-[3-fluoro-4-[6-methoxy-7-[3-(1-pyrrolidyl)propyloxy]quinolin]-4-oxy]phenyl]-2-(4-fluorophenyl)-4-allyl-3,5-dicarbonyl-2,3,4,5-tetrahydro-1,2,4-triazine-6-carboxamide [Example 42]”: the “SMMC-7721 IC50” value in test [1] is 0.92 µg/mL. The “H460 IC50” value in test [2] came out at 1.1 µg/mL. In addition, the “HT-29 IC50” value in test [3] turned out to be 0.77 µg/mL. For the same substance, in test [4], the “IC50 for inhibiting c-Met kinase” value was 1.63 µg/mL. In addition, in test [5], the “MKN-45 IC50” value came to 0.11 µg/mL.

“N-[3-fluoro-4-[6-methoxy-7-[3-(4-methyl-1-piperazinyl)propyloxy]quinolin]-4-oxy]phenyl]-2-(2-fluorophenyl)-4-allyl-3,5-dicarbonyl-2,3,4,5-tetrahydro-1,2,4-triazine-6-carboxamide [Example 41]”: the “SMMC-7721 IC50” value in test [1] turned out to be 1.4 µg/mL. In test [2], the “H460 IC50” value worked out at 0.8 µg/mL. Further, the “HT-29 IC50” value in test [3] turned out to be 1.1 µg/mL. In test [4], the “IC50 for inhibiting c-Met kinase” value came to 2.7 µg/mL. Further, in test [5], the “MKN-45 IC50” value is 0.06 µg/mL.

On to “N-[3-fluoro-4-[6-methoxy-7-[3-(4-methyl-1-piperazinyl)propyloxy]quinolin]-4-oxy]phenyl]-2-(3,4-difluorophenyl)-4-benzyl]-3,5-dicarbonyl-2,3,4,5-tetrahydro-1,2,4-triazine-6-carboxamide [Example 45]”, for which the “SMMC-7721 IC50” value in test [1] was 1.1 µg/mL. Also, the “H460 IC50” value in test [2] worked out at 0.34 µg/mL. Also, in test [3], the “HT-29 IC50” value worked out at 0.28 µg/mL. In addition, the “IC50 for inhibiting c-Met kinase” value in test [4] was 2.72 µg/mL. In test [5], the “MKN-45 IC50” value came to 0.05 µg/mL.

In the case of “N-[3-fluoro-4-[6-methoxy-7-[3-(4-methyl-1-piperazinyl)propyloxy]quinolin]-4-oxy]phenyl]-2-(3-trifluoromethylphenyl)-4-benzyl-3,5-dicarbonyl-2,3,4,5-tetrahydro-1,2,4-triazine-6-carboxamide [Example 47]”, the “SMMC-7721 IC50” value in test [1] amounted to 3.7 µg/mL. Also, the “H460 IC50” value in test [2] turned out to be 1.1 µg/mL. Besides, the “HT-29 IC50” value in test [3] is 0.09 µg/mL. Also, the “IC50 for inhibiting c-Met kinase” value in test [4] stood at 5.92 µg/mL. For the same substance, the “MKN-45 IC50” value in test [5] was determined as 0.4 µg/mL.

For “N-[3-fluoro-4-[6-methoxy-7-[3-(4-methyl-1-piperidinyl)propyloxy]quinolin-4-oxy]phenyl]-2-(3-trifluoromethylphenyl)-4-methyl-3,5-dicarbonyl-2,3,4,5-tetrahydro-1,2,4-triazine-6-carboxamide [Example 24]”, the “SMMC-7721 IC50” value in test [1] is 0.61 µg/mL. Further, the “H460 IC50” value in test [2] worked out at 0.28 µg/mL. Moreover, the “HT-29 IC50” value in test [3] was 0.5 µg/mL. Moreover, the “IC50 for inhibiting c-Met kinase” value in test [4] came to 0.18 µg/mL. In test [5], the “MKN-45 IC50” value was 0.093 µg/mL.

As to “N-[3-fluoro-4-[6-methoxy-7-[3-(4-methyl-1-piperidinyl)propyloxy]quinolin-4-oxy]phenyl]-2-(4-methylphenyl)-4-methyl-3,5-dicarbonyl-2,3,4,5-tetrahydro-1,2,4-triazine-6-carboxamide [Example 14]”, in test [1], the “SMMC-7721 IC50” value stood at 0.88 µg/mL. For the same substance, in test [2], the “H460 IC50” value stood at 0.15 µg/mL. For the same substance, in test [3], the “HT-29 IC50” value turned out to be 0.11 µg/mL. Also, in test [4], the “IC50 for inhibiting c-Met kinase” value worked out at 0.088 µg/mL. For the same substance, the “MKN-45 IC50” value in test [5] worked out at 2.1 µg/mL.

As to “N-[3-fluoro-4-[6-methoxy-7-[3-(4-methyl-1-piperidinyl)propyloxy]quinolin-4-oxy]phenyl]-2-phenyl-4-methyl-3,5-dioxo-2,3,4,5-tetrahydro-1,2,4-triazine-6-carboxamide [Example 4]”, in test [1], the “SMMC-7721 IC50” value stood at 0.071 µg/mL. Also, the “H460 IC50” value in test [2] came to 0.087 µg/mL. The “HT-29 IC50” value in test [3] stood at 0.13 µg/mL. Further, in test [4], the “IC50 for inhibiting c-Met kinase” value was 0.63 µg/mL. Besides, the “MKN-45 IC50” value in test [5] was 0.053 µg/mL.

With “N-[3-fluoro-4-[6-methoxy-7-[3-(4-morpholinyl)propyloxy]quinolin-4-oxy]phenyl]-2-(2-fluorophenyl)-4-methyl-3,5-dicarbonyl-2,3,4,5-tetrahydro-1,2,4-triazine-6-carboxamide [Example 23]”, the “SMMC-7721 IC50” value in test [1] was 0.44 µg/mL. Also, the “H460 IC50” value in test [2] came to 0.57 µg/mL. In test [3], the “HT-29 IC50” value is 0.35 µg/mL. The “IC50 for inhibiting c-Met kinase” value in test [4] stood at 0.82 µg/mL. In addition, the “MKN-45 IC50” value in test [5] stood at 0.0028 µg/mL.

In the case of “N-[3-fluoro-4-[7-methoxy-6-[3-(1-piperidinyl)propyloxy]quinolin-4-oxy]phenyl]-2-(2-trifluoromethylphenyl)-4-allyl-3,5-dicarbonyl-2,3,4,5-tetrahydro-1,2,4-triazine-6-carboxamide [Example 37]”, in test [1], the “SMMC-7721 IC50” value was determined as 2.3 µg/mL. In addition, in test [2], the “H460 IC50” value is 1.7 µg/mL. In test [3], the “HT-29 IC50” value amounted to 0.88 µg/mL. Also, the “IC50 for inhibiting c-Met kinase” value in test [4] turned out to be 3.7 µg/mL. Besides, the “MKN-45 IC50” value in test [5] came to 0.12 µg/mL.

On to “N-[3-fluoro-4-[7-methoxy-6-[3-(1-pyrrolidyl)propyloxy]quinolin-4-oxy]phenyl]-2-(2-trifluoromethylphenyl)-4-butyl-3,5-dicarbonyl-2,3,4,5-tetrahydro-1,2,4-triazine-6-carboxamide [Example 35]”, for which the “SMMC-7721 IC50” value in test [1] came out at 0.31 µg/mL. Also, the “H460 IC50” value in test [2] is 0.12 µg/mL. The “HT-29 IC50” value in test [3] was 0.079 µg/mL. Besides, the “IC50 for inhibiting c-Met kinase” value in test [4] worked out at 0.03 µg/mL. Also, the “MKN-45 IC50” value in test [5] was determined as 0.005 µg/mL.

As to “N-[3-fluoro-4-[7-methoxy-6-[3-(1-pyrrolidyl)propyloxy]quinolin-4-oxy]phenyl]-2-(3-fluorophenyl)-4-butyl-3,5-dioxo-2,3,4,5-tetrahydro-1,2,4-triazine-6-carboxamide [Example 30]”, the “SMMC-7721 IC50” value in test [1] was determined as 0.46 µg/mL. Further, in test [2], the “H460 IC50” value amounted to 0.18 µg/mL. Also, the “HT-29 IC50” value in test [3] was found to be 0.11 µg/mL. In addition, the “IC50 for inhibiting c-Met kinase” value in test [4] came out at 0.058 µg/mL. Besides, the “MKN-45 IC50” value in test [5] amounted to 0.043 µg/mL.

Take “N-[3-fluoro-4-[7-methoxy-6-[3-(4-methyl-1-piperidinyl)propyloxy]quinolin-4-oxy]phenyl]-2-(2-trifluoromethylphenyl)-4-allyl-3,5-dioxo-2,3,4,5-tetrahydro-1,2,4-triazine-6-carboxamide [Example 36]”: the “SMMC-7721 IC50” value in test [1] came to 2.4 µg/mL. Moreover, the “H460 IC50” value in test [2] came out at 1.7 µg/mL. Also, the “HT-29 IC50” value in test [3] was found to be 0.43 µg/mL. Further, in test [4], the “IC50 for inhibiting c-Met kinase” value worked out at 1.1 µg/mL. In addition, in test [5], the “MKN-45 IC50” value is 0.21 µg/mL.

“N-[3-fluoro-4-[7-methoxy-6-[3-(4-methyl-1-piperidinyl)propyloxy]quinolin-4-oxy]phenyl]-2-(2-trifluoromethylphenyl)-4-butyl-3,5-dicarbonyl-2,3,4,5-tetrahydro-1,2,4-triazine-6-carboxamide [Example 33]”: the “SMMC-7721 IC50” value in test [1] came to 0.43 µg/mL. The “H460 IC50” value in test [2] is 0.15 µg/mL. Moreover, in test [3], the “HT-29 IC50” value was 0.18 µg/mL. In test [4], the “IC50 for inhibiting c-Met kinase” value worked out at 0.27 µg/mL. In addition, the “MKN-45 IC50” value in test [5] is 0.09 µg/mL.

With “N-[3-fluoro-4-[7-methoxy-6-[3-(4-methyl-1-piperidinyl)propyloxy]quinolin-4-oxy]phenyl]-2-phenyl-4-butyl-3,5-dioxo-2,3,4,5-tetrahydro-1,2,4-triazine-6-carboxamide [Example 28]”, in test [1], the “SMMC-7721 IC50” value turned out to be 0.44 µg/mL. The “H460 IC50” value in test [2] was 0.25 µg/mL. In addition, the “HT-29 IC50” value in test [3] is 0.31 µg/mL. For the same substance, in test [4], the “IC50 for inhibiting c-Met kinase” value was 0.31 µg/mL. In addition, the “MKN-45 IC50” value in test [5] amounted to 0.077 µg/mL.
